# Data as given in the METLIN SMRT retention time set (Domingo-Almenara et al. 2019).
# Assay: gradient 5% acetonitrile 3 min, to 50% in 2 min, to 85% in 15 min, held 3 min, 100 µL/min
# Details: column: Zorbax Extend-C18 2.1 x 50 mm; eluents: water / acetonitrile, 0.1% formic acid
# In short: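 Pure standards were run in mixtures of ~100 molecules by HPLC coupled to a quadrupole time-of-flight mass spectrometer. The column was a Zorbax Extend-C18 (2.1 × 50 mm, 1.8 μm) at 100 μL/min, with water and acetonitrile each containing 0.1% formic acid, in positive and negative ionization mode. Dead and dwell volumes were 40 μL and 900 μL. Retention time was taken from computationally picked adduct peaks, each manually inspected, with data collected over 3 months.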
row,SMILES,RP-LC retention time [s]
1,CCc1ccc(S(=O)(=O)c2cnc(N3CCN(C4CCCCC4)CC3)nc2N)cc1,706
2,Cc1ccc(-c2noc(Cn3ccn(-c4c(C)cccc4C)c(=O)c3=O)n2)cc1C,1000
3,COC(=O)c1c(NCCc2ccccc2)c2cccc(Cl)c2[nH]c1=O,825
4,Cc1ccc(CC(=O)N2CCC(COc3ccc(C(=O)NC4CC4)cc3)CC2)cc1,856
5,Fc1cccc(-c2cc(CN3CCN(c4ncccn4)CC3)[nH]n2)c1,618
6,CCOC(=O)CN1CC2=C(C1=O)C(c1ccc(OC)cc1)NC(=O)N2 (stereo not given),618
7,CCOC(=O)c1[nH]c(C)c(C(=O)NCCN(C)C)c1C,571
8,CCN1CCN(Cc2nc3cc(NC(=O)C(C)C)ccc3n2C(C)C)CC1,563
9,Cn1cc(CCN2CCC(C(=O)NCc3ccccc3F)CC2)c2cccnc21,595
10,COc1ccc(-n2ccn(CC(=O)Nc3ccc(Br)cc3)c(=O)c2=O)cc1,728
11,CC(C)Oc1ccc(C(=O)Nc2nc(-c3cccnc3)cs2)cc1,660
12,COc1ccc(NC(=O)N2CCC3(CC2)Nc2ccccc2-n2cccc23)c(OC)c1,1000
13,Cc1noc(-c2ccnc(-n3ncc(C(=O)N4CCN(Cc5ccccc5)CC4)c3C)c2)n1,645
14,CCCN(Cc1ccc(Cl)cc1)Cc1cc(=O)n2cc(C)ccc2n1,674
15,COc1ccc(C2C(C(=O)N3CCC(C)CC3)c3cc(OC)c(OC)cc3C(=O)N2C)cc1OC (stereo not given),764
16,O=C(c1cccs1)N1CC(Oc2ccc(-c3nc(-c4ccccc4)no3)cc2)C1,1170
17,CCOC(=O)C1CCN(C(=O)Cn2c3ccccc3c3cnn(C)c(=O)c32)CC1,775
18,COc1ccc(OC)c(CNC(=O)C2CCCN(c3nccnc3Oc3ccccc3)C2)c1 (stereo not given),957
19,Cc1ccc(Nc2nc(C)cc(N3CCN(C(=O)Nc4cccc(C(F)(F)F)c4)CC3)n2)cc1,806
20,Cc1ccc2c(C(=O)NCc3ccc(F)cc3F)cc(NC(=O)C(C)C)cc2n1,660
21,CN(Cc1ccco1)C(=O)c1ccc(-n2cc(CNC(=O)C3CC3)cn2)cc1,676
22,COc1ccc(NC(=O)Nc2c(-c3ccccc3)nc3ccccn23)cc1OC,612
23,COCCOC1CCC12CCN(C(=O)c1occc1C)CC2 (stereo not given),779

row,SMILES,RP-LC retention time [s]
1,COc1cccc(NC(=O)c2[nH]c3cc(C)sc3c2CN2CCOCC2)c1,685
2,CCOc1ccc(N2CCn3c2nnc(C(=O)NCC2CCCO2)c3=O)cc1 (stereo not given),637
3,Cc1cc(Cl)ccc1N1C(=O)CN(S(C)(=O)=O)CC1(C)C(=O)NC1CCCCC1 (stereo not given),900
4,CC(=O)Nc1ccc(C(=O)Nc2ccccc2N)cc1,629
5,Cc1cccc(S(=O)(=O)N2CC3CN(C(=O)C(C)c4ccccc4)CC(C2)O3)c1 (stereo not given),905
6,CN(C)c1cccc(C(=O)N2CCN(c3cc(-c4ccccc4)[nH]n3)CC2)c1,690
7,CCCn1c(=O)sc2cc(S(=O)(=O)N3CCC(C(=O)NCc4cccs4)CC3)ccc21,880
8,COc1ccc(-c2nc(NC(=O)c3cccnc3)sc2C)cc1,800
9,CCC[C@@H](NC(=O)N1C(=O)C(CC)(CC)[C@@H]1Oc1ccc(C(=O)N2CCN(C)CC2)cc1)c1ccc2c(c1)OCO2,919
10,O=c1c2oc3ccccc3c2ncn1Cc1nc(-c2ccc(F)cc2)no1,945
11,Cc1nc(-c2ccc(N3CCN(C(=O)c4cccc(F)c4)CC3)nc2)sc1C,921
12,Cc1nc(CC(=O)Nc2ccc(Cl)cc2F)cs1,838
13,CC(C)NC(=O)c1ccc(OCC2CCCN(C(=O)c3ccc(Br)o3)C2)cc1 (stereo not given),876
14,Cc1ccc(C(C)NC(=O)Cn2cc(-c3noc(-c4cccnc4)n3)nc2C)cc1 (stereo not given),715
15,COc1ccc(OC)c(NC(=O)c2ccc3nc(-c4ccccc4)cn3c2)c1,762
16,CCCN1CCN(C(=O)c2cccn2Cc2noc(-c3ccccc3)n2)CC1,653
17,Cc1ccc(NS(=O)(=O)c2cc(-c3nc(C(C)(C)C)cs3)cs2)c(Cl)c1,1320
18,Cc1sc(NC(=O)c2ccc(F)cc2)nc1-c1ccc(Br)cc1,1240
19,O=C(c1ccc(F)cc1)N1CCN(c2ccc(=O)n(-c3cccc(Cl)c3)n2)CC1,869
20,CCc1ccc(NC(=O)Cn2c(N)nc(C)cc2=O)cc1,639
21,Cc1cc(NC(=O)c2cccc(N3C(=O)CCC3=O)c2)n(-c2nc3ccc(F)cc3s2)n1,706
22,O=C(C1CC(=O)N(c2ccccc2)C1)N1CCSCC1 (stereo not given),828
23,O=C(c1ccc(Br)cc1)N1CCC(n2c(-c3ccoc3)nc3cccnc32)C1 (stereo not given),783

row,SMILES,RP-LC retention time [s]
1,CCCNC(=O)C1CCN(C(=O)CCc2c(C)[nH]c(C(=O)OCC)c2C)CC1,679
2,CC1(C)CC(=O)c2cnc(N3CCN(c4ccccn4)CC3)nc2C1,621
3,Cc1occc1-c1nnc(SCC(=O)N2CCCc3ccccc32)o1,962
4,CSc1cccc(Nc2c(C(=O)N3CCOCC3)cnc3nc(C)ccc23)c1,606
5,CN(C)c1ccc(C(CNC(=O)c2ccc(Br)o2)N2CCOCC2)cc1 (stereo not given),626
6,O=C(O)C(c1ccccc1)n1cnnn1 (stereo not given),585
7,CCc1c(C(=O)O)nnn1-c1ccc(Cl)cc1,748
8,CNC(=O)c1noc([C@@H]2CC(F)(F)CN2C(=O)CCOC)n1,607
9,COCCCNC(=O)CN1C(=O)C2CCCCN2c2ccc(C(=O)N3CCCC3)cc21 (stereo not given),696
10,COC(=O)c1c(NCc2cc(F)cc(F)c2)c2cccc(Cl)c2[nH]c1=O,808
11,CCCn1c(=O)sc2cc(S(=O)(=O)N3CCC(C(=O)N(CC)CC)CC3)ccc21,881
12,Cc1ccc2c(NCc3ccc(F)cc3)c(-c3nc(C(C)C)no3)cnc2n1,798
13,Cc1ccc(CNC(=O)C2CCCN(c3nnc4ccc(Cl)cn34)C2)o1 (stereo not given),740
14,CCN1C(=O)C2CCC(=O)N2c2ccc(C(=O)NC3CCCC3)cc21 (stereo not given),692
15,NS(=O)(=O)c1ccc(CCNS(=O)(=O)c2cc(-c3ccno3)cs2)cc1,748
16,CCn1nc(-c2csc(S(=O)(=O)N3CCCCC3C)c2)ccc1=O (stereo not given),896
17,O=C(NCc1ccc(Cl)cc1)C1CCCN(c2cnc3nccnc3c2)C1 (stereo not given),731
18,Nc1cc(C2CCN(C(=O)Cc3ccc(F)cc3)CC2)no1,684
19,Cc1noc(-c2ccc(OC3CN(S(=O)(=O)c4cccc5nsnc45)C3)cc2)n1,932
20,Cc1ccc(-c2nnc(-c3nc(N4CCOCC4)c4ccccc4n3)o2)cc1,945
21,Cn1cc(CCN2CCN(S(=O)(=O)c3ccccc3F)CC2)c2cccnc21,608
22,Cc1cccc(N2CCN(Cc3nc4nc(C)cc(N5CCCC5)n4n3)CC2)c1,632
23,Cc1ccc(C(=O)N2CCOc3ccc(NC(=O)C4CC4)cc3C2)s1,790

row,SMILES,RP-LC retention time [s]
1,O=c1c2cc(-c3ccccc3)nn2ccn1Cc1noc(CN2CCCC2)n1,646
2,CCn1c(-c2nonc2N)nc2c(C#CC(C)(C)O)ncc(OC[C@H]3CCCNC3)c21,645
3,CCN(CC)C(=O)c1ccc(-c2nc3cc(NS(=O)(=O)c4ccc(F)cc4F)ccc3n2C)cc1,710
4,Cc1ccc(Nc2c(-c3c(F)cccc3Cl)nc3cccc(C)n23)cc1,763
5,CCN1CCCC1CNC(=O)CN1C(=O)C2CCCCN2c2ccc(C(=O)N(C)C)cc21 (stereo not given),596
6,N#Cc1cccc(C(=O)Nc2ccc3cn[nH]c3c2)c1,659
7,O=C(O)c1cc(-c2ccc3c(c2)OCO3)nc2cc3c(cc12)OCCO3,690
8,Cc1cc(NC(=O)NCCn2nnc3cc(C(=O)N(C)C)ccc32)ccc1Br,707
9,COc1ccc(-n2ccc(=O)c(-c3nc(-c4ccc(OC(C)C)cc4)no3)n2)cc1,982
10,CCC1(C(=O)Nc2cc(OC)ccc2OC)CCCCC(=O)N1 (stereo not given),722
11,CC(C)CN1C(=O)c2cccn2CC1C(=O)NCCCOC1CCN(C(C)C)CC1 (stereo not given),598
12,CN(C)C(=O)c1csc(S(=O)(=O)N2CCC(C(=O)NC3CCCCCC3)CC2)c1,783
13,Cc1ccc(-c2ccc(OCC(=O)NC(C)(C)C)cc2)cc1,1100
14,CC1CCN(S(=O)(=O)c2ccc(-c3nnc(C(=O)NC4CCCCC4)o3)cc2)CC1,1120
15,COC(=O)Cn1c(=O)c2c(nc3n2CCCN3c2ccc(Cl)cc2)n(C)c1=O,868
16,CC(C)NC(=O)c1nc(-c2ccnc(N3CCCCC3)c2)no1,671
17,COc1ccc(-c2nc3cnccn3c2Nc2cccc(Cl)c2C)cc1,965
18,Cc1cc(C)n2nc(SCC(=O)Nc3ccccc3)nc2n1,700
19,CCOC(=O)c1c(C)[nH]c(C(=O)N2CCC(CC(=O)NCc3cccc(F)c3)CC2)c1C,779
20,O=C(c1cc(C2CC2)[nH]n1)N1CCCCC1,661
21,CN(CC1CCOC1)C(=O)Nc1cccc(Cl)c1 (stereo not given),738
